# T1: YciM (Salmonella enterica, UniProt Q7CQG6)
# T1 sequence (Q7CQG6 23-389): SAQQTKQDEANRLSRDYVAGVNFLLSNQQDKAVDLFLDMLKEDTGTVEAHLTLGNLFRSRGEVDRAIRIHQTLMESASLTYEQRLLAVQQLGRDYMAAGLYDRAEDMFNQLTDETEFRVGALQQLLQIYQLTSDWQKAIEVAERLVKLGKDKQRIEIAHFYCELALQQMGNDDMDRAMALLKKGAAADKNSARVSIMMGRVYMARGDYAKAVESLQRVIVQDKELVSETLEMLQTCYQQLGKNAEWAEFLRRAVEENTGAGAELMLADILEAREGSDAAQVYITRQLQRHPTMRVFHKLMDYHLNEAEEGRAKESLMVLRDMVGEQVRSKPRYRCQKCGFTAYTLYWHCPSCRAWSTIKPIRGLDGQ
# B1: YciM cytoplasmic domain of S. typhimurium (domain or fragment, UniProt A0A0F6B1Z6 136-389, looked up)
# chain: ETEFRVGALQQLLQIYQLTSDWQKAIEVAERLVKLGKDKQRIEIAHFYCELALQQMGNDDMDRAMALLKKGAAADKNSARVSIMMGRVYMARGDYAKAVESLQRVIVQDKELVSETLEMLQTCYQQLGKNAEWAEFLRRAVEENTGAGAELMLADILEAREGSDAAQVYITRQLQRHPTMRVFHKLMDYHLNEAEEGRAKESLMVLRDMVGEQVRSKPRYRCQKCGFTAYTLYWHCPSCRAWSTIKPIRGLDGQ
# Experiments:
# YciM = molecular target: T1, YciM; assay: isothermal titration calorimetry, single-site fit; type: binding
# crystal structure = molecular target: the molecule itself; assay: crystal structure
Molecule,Kd (YciM),binding result (crystal structure)
CCCCCCCCCCCC(O)CC(=O)O (centres unmarked) [3-hydroxymyristic acid],1250 ± 880 nM,–
B1,–,binds

# From paper PMC9460159 (iScience, 2022)
